Legend:
[1] = system: S. aureus FRI 100; assay: Minimum stationary-bactericidal concentration (MSC); format: cell-based, Staphylococcus aureus; conditions: for MSC: S. aureus FRI 100, stationary cells, 24 hours
Description: Determination of the Minimum Stationary-Bactericidal Concentration.
Cultures of C. crescentus (24 hour incubation) and S. aureus cells (5 day incubation) were grown from single colonies. Cells were collected by centrifugation (8500 rpm for 2.5 minutes) and re-suspended in M2 salt solution (for C. crescentus; 1.74 g/L Na2HPO4, 1.06 g/L KH2PO4, and 0.5 g/L NH4Cl) or phosphate-buffered saline (for S. aureus; PBS, Fisher Scientific). The centrifugation and re-suspension was repeated two more times. After the repeated washing steps, the cell suspension was diluted 10-fold to achieve approximately 10^8 cells/mL. Aliquots of the diluted cell suspension were transferred into wells of a 96-well plate (100 μL/well), and 2-fold serial dilutions were performed to test a range of antibiotic concentrations. The plate was sealed with Parafilm® and incubated for 24 hours at room temperature in the dark. After incubation, 50 μl was removed from each well to spread on nutrient agar plates (1.5% agar in PYE for C. crescentus, and LB for S. aureus). The colonies on each plate were counted after growing the cells for 1-2 days. For determining the kinetics of bactericidal activity of DCAP on stationary cultures, the washed cells were diluted by 100-fold in appropriate solutions and tested using a single concentration of the compound while including a DMSO control sample. Cell suspensions were kept in closed microcentrifuge tubes instead of the wells of 96-well plates. 100 μL of the suspensions was removed for plating at each time point. All MSC experiments were performed in static conditions.
In addition to its activity against actively growing bacteria, DCAP kills cells in stationary phase (Table 3). This property was tested against C. crescentus and S. aureus. […] To ensure that bacteria were deprived of nutrients, the cells were grown into late stationary phase (i.e., 24 hours for C. crescentus and 5 days for S. aureus). These cells were collected, suspended in isotonic solutions devoid of amino acids or sugars, and treated with a small molecule (DMSO, DCAP, CCCP or ampicillin). Cell viability was measured over time by plating culture aliquots on non-selective, solid growth media. The minimum concentration of antibiotic required to completely eliminate colony formation was designated as the minimum stationary-bactericidal concentration (MSC). […] CCCP inhibited the proliferation of C. crescentus cells regardless of their physiological status. However, the MSC of CCCP for S. aureus was >300-fold higher than the MIC. This dramatic decrease in the effectiveness of CCCP in S. aureus may be due to changes in membrane composition as cells adjust their metabolism in nutrient-deprived conditions.

[2] = system: C. crescentus CB15N; assay: Minimum biofilm eradication concentration (MBEC); format: cell-based, Caulobacter crescentus
Description: Determination of the minimum biofilm inhibitory concentration of growth (bMIC) and biofilm eradication concentration (MBEC). Overnight cultures of C. crescentus and S. aureus were grown and diluted 100-fold into appropriate nutrient media. Aliquots of the diluted suspension were transferred into wells of 96-well plates (150 μL/well). 2-fold serial dilutions were performed for compound-containing wells. For every experiment, three replicates for each compound concentration tested were included. After transferring aliquots of the suspension, the plates were closed with specialized lids that have protruding pins (Nunc STP System), and the plates were sealed using Parafilm®. The plates were incubated in a static incubator at 30° C. (C. crescentus) or 37° C. (S. aureus) for 24 hours. After the cells had formed biofilms on the surface of the pins, the pins were rinsed by dipping them in M2 (C. crescentus) or PBS (S. aureus) solutions. To rinse the pins, clean, sterile 96-well plates were used (aliquots of 200 μL/well); each rinse lasted 10 sec. After washing away planktonic cells loosely bound to biofilms, the pins were inserted into a 96-well plate that was pre-aliquoted with nutrient media containing antibiotics (2-fold dilutions, a final volume of 150 μL/well). The plates were sealed with Parafilm®, and incubated for 17 hours, and the bMIC was measured at the end of the incubation by visual inspection. After the bMIC run, the rinse steps were repeated to remove planktonic cells, and the pins were inserted into a 96-well plate that was pre-aliquoted with drug-free nutrient media (aliquots of 150 μL/well). The plates were sealed with Parafilm®, incubated for 24 hours, and the MBEC was measured at the end of the incubation by visual inspection.
After performing bMIC experiments, biofilms growing on the pins of the lid were transferred to nutrient media devoid of antibiotics to measure the minimum concentration of antibiotic that prevented planktonic growth from biofilms in antibiotic-free nutrient media (MBEC). MBEC indicates whether the exposure to antimicrobial agent used during the bMIC experiment sterilized biofilm-associated cells. […] CCCP was the only effective antibiotic against S. aureus biofilms. Since CCCP was not as effective as DCAP at killing stationary cells, it was hypothesized that this variability in efficacy of membrane-active drugs is in part caused by changes in membrane composition (i.e., membrane proteins and lipid content) at different developmental stages of bacterial cells. […]

[3] = system: C. crescentus cells; assay: Measurement of ΔΨ using DiOC2, fluorescence microscopy; format: cell-based, Caulobacter crescentus; conditions: 20 minutes of treatment, p<0.001
Description: For experiments with C. crescentus cells, the cells were prepared by diluting the overnight culture 10-fold into fresh PYE medium. The diluted culture was grown for 1 hour at 200 rpm and 30° C. The cells were treated with compounds for 10 minutes at room temperature, DiOC2 dye was added to a final concentration of 30 μM, and incubated for 10 minutes. After labeling, small aliquots (1-2 μl) of the suspensions of cells were transferred onto 1% agarose pads for fluorescence microscopy. A Nikon Eclipse TE2000E inverted microscope with an Andor DU-895 EMCCD camera, a Perfect Focus system, and an encoded z-stage were used for phase contrast and epifluorescence microscopy. For detecting green and red fluorescence of the dye, the following wavelengths (λex/λem): 484/520 nm and 555/620 nm, respectively, were used. Acquired images were analyzed using the MATLAB-based script MicrobeTracker. […] The segmentation was applied to the fluorescence images to calculate the fluorescence intensity for individual cells. A separate MATLAB script was written to process the results from MicrobeTracker, in which the cell-area normalized ratio of red to green fluorescence for each cell was calculated.
ΔΨ was measured for two model bacteria, C. crescentus (Gram-negative) and Bacillus subtilis (Gram-positive), in the absence and presence of DCAP. […] DiOC2 emits green fluorescence (λ=530 nm) in its monomeric form. […]

SMILES: OCC(CO)(CO)NCC(O)Cn1c2ccc(Cl)cc2c2cc(Cl)ccc21 (centres unmarked) [DCAP, 2-((3-(3,6-dichloro-9H-carbazol-9-yl)-2-hydroxypropyl)amino)-2-(hydroxymethyl)propane-1,3-diol]
- MSC [1]: 75 µM
- Minimum time required to obtain the MSC ([1]; S. aureus, data not shown): 6 h
- MBEC [2]: 40 µM
- ΔΨ (λ576/λ530 of DiOC2) [3]: significant decrease in λ576/λ530

SMILES: N#CC(C#N)=NNc1cccc(Cl)c1 [CCCP, carbonyl cyanide m-chlorophenyl hydrazone]
- MSC [1]: >400 µM
- MSC relative to MIC ([1]; S. aureus, stationary vs growing cells): > 300 fold
- MBEC [2]: 5 µM
- ΔΨ (λ576/λ530 of DiOC2) [3]: significant decrease in λ576/λ530

Reference: patent publication US10314816B2, “Antimicrobial compounds, compositions and methods of use thereof” (Wisconsin Alumni Research Foundation, priority 2012, dated 2019)
